23 compounds from US10703757B2, “Compounds and methods for CDK8 modulation and indications therefor” (Plexxikon Inc., priority 2016, dated 2020) can be followed below.

In assay [1] the test system is CDK8 (phosphorylation of STAT1 at serine 727 in A549 cells). The experiment in a line: Cell based Phospho-STAT1 assay (IFNγ-stimulated A549 cells, AlphaLISA). The note with it: Homo sapiens, A549, A549 cells, phospho-STAT1 after IFNγ stimulation. The method, boiled down:
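A549 cells given serial compound dilutions for 1 h at 37 °C, then stimulated with IFNγ at 10 ng/mL final for 30 min. Lysate STAT1 Ser727 phosphorylation measured by AlphaLISA; % inhibition vs stimulated/unstimulated DMSO controls, IC50 by nonlinear regression.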
(Bead proximity is the source of the signal in Alpha formats.)

Assay [2] relates to CDK8 (TCF/LEF luciferase reporter in HCT116 cells). The experiment in a line: Cell based TCF/LEF reporter assay (HCT116+TCF/LEF luciferase). Particulars: Homo sapiens, HCT-116, 24 h. In a few lines:
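HCT116 cells stably carrying a TCF/LEF-luciferase reporter (endogenous mutant β-catenin), seeded overnight, then exposed to serial compound dilutions for 24 h at 37 °C. Luminescence normalized to CellTiter-Fluor viability signal. % inhibition relative to DMSO and 10 uM CCT251545 controls, with IC50 from nonlinear regression.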
On the technique in general: A reporter such as luciferase makes a cellular process visible.

Each structure is given as a SMILES string.

For orientation: IC50 means the point on the concentration scale where inhibition reaches its midpoint. Lower therefore signals greater potency. Take `COc1ccc2cc(-c3cnn4cccc(C5CCC(C#N)CC5)c34)ccc2n1` (stereo not shown) [Compound P-0195, 4-(3-(2-methoxyquinolin-6-yl)pyrazolo[1,5-a]pyridin-4-yl)cyclohexane-1-carbonitrile]: the IC50 in assay [1] and in assay [2] was 0.1 to 100 nM in each case.

For `NC(=O)C1CC=C(c2cccn3ncc(-c4ccc(-n5ccnn5)cc4)c23)CC1` (stereo not shown) [Compound P-0196, 4-(3-(4-(1H-1,2,3-triazol-1-yl)phenyl)pyrazolo[1,5-a]pyridin-4-yl)cyclohex-3-ene-1-carboxamide], the IC50 in assay [1] lay within 0.1 to 100 nM; in assay [2], 100 to 1000 nM.

For `NC(=O)C1CC=C(c2cccn3ncc(-c4ccc(-n5cccn5)cc4)c23)CC1` (stereo not shown) [Compound P-0197, 4-(3-(4-(1H-pyrazol-1-yl)phenyl)pyrazolo[1,5-a]pyridin-4-yl)cyclohex-3-ene-1-carboxamide], the IC50 in assay [1] fell in the range of 0.1 to 100 nM; in assay [2] it was 100 to 1000 nM.

Regarding `COc1ccc2cc(-c3cnn4ccnc(C#CC(C)(C)O)c34)ccc2n1` [Compound P-0198, 4-(3-(2-methoxyquinolin-6-yl)pyrazolo[1,5-a]pyrazin-4-yl)-2-methylbut-3-yn-2-ol], the IC50 in assay [1] and in assay [2] was 100 to 1000 nM throughout.

With `CS(=O)(=O)Nc1ccc2cc(-c3cnn4cccc(C5=CCC(C#N)CC5)c34)ccc2c1` (stereo not shown) [Compound P-0199, N-(6-(4-(4-cyanocyclohex-1-en-1-yl)pyrazolo[1,5-a]pyridin-3-yl)naphthalen-2-yl)methanesulfonamide], the IC50 in assay [1] and in assay [2] was 0.1 to 100 nM throughout.

Take `N#CC1CCN(c2c(-c3ccc4cc(C(=O)O)ccc4c3)cnc3[nH]ccc23)CC1` [Compound P-0200, 6-(4-(4-cyanopiperidin-1-yl)-1H-pyrrolo[2,3-b]pyridin-5-yl)-2-naphthoic acid]: the figures for the IC50 in assay [1] and in assay [2] were 1000 to 10000 nM and 100 to 1000 nM, respectively.

In the case of `N#CC1CC=C(c2c(-c3ccc(-n4ccnn4)cc3)cnc3[nH]ccc23)CC1` (stereo not shown) [Compound P-0201, 4-(5-(4-(1H-1,2,3-triazol-1-yl)phenyl)-1H-pyrrolo[2,3-b]pyridin-4-yl)cyclohex-3-ene-1-carbonitrile], the results for the IC50 in assay [1] and in assay [2] were 100 to 1000 nM and 0.1 to 100 nM, respectively.

Take `Cc1ccc2cc(-c3cnc4[nH]ccc4c3C3=CCC(C#N)CC3)ccc2n1` (stereo not shown) [Compound P-0202, 4-(5-(2-methylquinolin-6-yl)-1H-pyrrolo[2,3-b]pyridin-4-yl)cyclohex-3-ene-1-carbonitrile]: the IC50 in assay [1] and in assay [2] was 0.1 to 100 nM each time.

In the case of `N#CC1CC=C(c2c(-c3ccc(-n4cccn4)cc3)cnc3[nH]ccc23)CC1` (stereo not shown) [Compound P-0203, 4-(5-(4-(1H-pyrazol-1-yl)phenyl)-1H-pyrrolo[2,3-b]pyridin-4-yl)cyclohex-3-ene-1-carbonitrile], the IC50 in assay [1] and in assay [2] was 0.1 to 100 nM each time.

Take `CC(C)(O)Cn1cc(-c2ccc(-c3cnc4[nH]cc(Cl)c4c3N3CCC(C#N)CC3)cc2)cn1` [Compound P-0204, 1-(3-chloro-5-(4-(1-(2-hydroxy-2-methylpropyl)-1H-pyrazol-4-yl)phenyl)-1H-pyrrolo[2,3-b]pyridin-4-yl)piperidine-4-carbonitrile]: the IC50 in assay [1] and in assay [2] was 0.1 to 100 nM each time.

Regarding `N#CC1CC=C(c2c(-c3ccc4c(c3)OCC(=O)N4)cnc3[nH]ccc23)CC1` (stereo not shown) [Compound P-0205, 4-(5-(3-oxo-3,4-dihydro-2H-benzo[b][1,4]oxazin-7-yl)-1H-pyrrolo[2,3-b]pyridin-4-yl)cyclohex-3-ene-1-carbonitrile], the IC50 was in the range of 100 to 1000 nM in assay [1] and 0.1 to 100 nM in assay [2].

Turning to `N#CC1CC=C(c2c(-c3ccc4[nH]c(=O)[nH]c4c3)cnc3[nH]ccc23)CC1` (stereo not shown) [Compound P-0206, 4-(5-(2-oxo-2,3-dihydro-1H-benzo[d]imidazol-5-yl)-1H-pyrrolo[2,3-b]pyridin-4-yl)cyclohex-3-ene-1-carbonitrile], the IC50 in assay [1] and in assay [2] was 0.1 to 100 nM throughout.

Regarding `N#CC1CC=C(c2c(-c3ccc4c(c3)C(=O)NC4)cnc3[nH]ccc23)CC1` (stereo not shown) [Compound P-0207, 4-(5-(3-oxoisoindolin-5-yl)-1H-pyrrolo[2,3-b]pyridin-4-yl)cyclohex-3-ene-1-carbonitrile], the IC50 in assay [1] fell in the range of 1000 to 10000 nM; in assay [2], 100 to 1000 nM.

As to `N#CC1CC=C(c2c(-c3ccc4c(c3)NC(=O)C4)cnc3[nH]ccc23)CC1` (stereo not shown) [Compound P-0208, 4-(5-(2-oxoindolin-6-yl)-1H-pyrrolo[2,3-b]pyridin-4-yl)cyclohex-3-ene-1-carbonitrile], the IC50 in assay [1] and in assay [2] was 0.1 to 100 nM each time.

In the case of `Cc1ccc2cc(-c3cnc4[nH]ccc4c3N3CCC(C#N)CC3)ccc2n1` [Compound P-0209, 1-(5-(2-methylquinolin-6-yl)-1H-pyrrolo[2,3-b]pyridin-4-yl)piperidine-4-carbonitrile], the IC50 in assay [1] and in assay [2] was 0.1 to 100 nM each time.

As for `N#CC1CCC(c2nccn3ncc(-c4ccc(-n5ccnn5)cc4)c23)CC1` (stereo not shown) [Compound P-0211, 4-(3-(4-(1H-1,2,3-triazol-1-yl)phenyl)pyrazolo[1,5-a]pyrazin-4-yl)cyclohexane-1-carbonitrile], the IC50 in assay [1] is 0.1 to 100 nM; in assay [2], 100 to 1000 nM.

With `O=C(O)C1CC=C(c2cccn3ncc(-c4ccc(-n5cccn5)cc4)c23)CC1` (stereo not shown) [Compound P-0213, 4-(3-(4-(1H-pyrazol-1-yl)phenyl)pyrazolo[1,5-a]pyridin-4-yl)cyclohex-3-ene-1-carboxylic acid], the IC50 in assay [1] and in assay [2] was 1000 to 10000 nM in each case.

For the compound `Cc1nc2ccc(-c3cnn4cccc(C5=CCC(C#N)CC5)c34)cc2s1` (stereo not shown) [Compound P-0214, 4-(3-(2-methylbenzo[d]thiazol-6-yl)pyrazolo[1,5-a]pyridin-4-yl)cyclohex-3-ene-1-carbonitrile], the IC50 in assay [1] and in assay [2] was 0.1 to 100 nM throughout.

Take `Cc1nc2ccc(-c3cnn4cccc(C#CC(C)(C)O)c34)cc2s1` [Compound P-0215, 2-methyl-4-(3-(2-methylbenzo[d]thiazol-6-yl)pyrazolo[1,5-a]pyridin-4-yl)but-3-yn-2-ol]: the IC50 in assay [1] and in assay [2] was 100 to 1000 nM each time.

Take `CC(C)(O)C#Cc1cccn2ncc(-c3ccc4cc(NS(C)(=O)=O)ccc4c3)c12` [Compound P-0216, N-(6-(4-(3-hydroxy-3-methylbut-1-yn-1-yl)pyrazolo[1,5-a]pyridin-3-yl)naphthalen-2-yl)methanesulfonamide]: the IC50 in assay [1] was 0.1 to 100 nM; in assay [2], 100 to 1000 nM.

Take `N#CC1CCC(c2cccn3ncc(-c4ccc(-n5cccn5)cc4)c23)CC1` (stereo not shown) [Compound P-0218, 4-(3-(4-(1H-pyrazol-1-yl)phenyl)pyrazolo[1,5-a]pyridin-4-yl)cyclohexane-1-carbonitrile]: the IC50 in assay [1] and in assay [2] was 0.1 to 100 nM throughout.

Regarding `N#CC1CCN(c2c(-c3ccc(-n4cccn4)cc3)cnc3[nH]ccc23)CC1` [Compound P-0219, 1-(5-(4-(1H-pyrazol-1-yl)phenyl)-1H-pyrrolo[2,3-b]pyridin-4-yl)piperidine-4-carbonitrile], the IC50 in assay [1] and in assay [2] was 0.1 to 100 nM each time.

For the compound `N#CC1CCN(c2c(-c3ccc(-n4ccnn4)cc3)cnc3[nH]ccc23)CC1` [Compound P-0220, 1-(5-(4-(1H-1,2,3-triazol-1-yl)phenyl)-1H-pyrrolo[2,3-b]pyridin-4-yl)piperidine-4-carbonitrile], the IC50 in assay [1] and in assay [2] was 0.1 to 100 nM each time.
